{
  "source": "patent US20260022142A1",
  "about": "“MACROCYCLIC IMMUNOMODULATORS” (Bristol-Myers Squibb Company, priority 2022, published 2026)",
  "note": "Numbered stars: 1 amine (or outer) side, 2 acyl side, 3 side chain; on linkers, the order of the positions; unused ones are H or OH. Bridge positions count the residues as written; N and C are the ends. Square brackets hold non-standard residues; d marks the D form. Peptide text beside a SMILES is read from it. * marks the point of attachment. Phe(4-COOH) = N[C@@H](Cc1ccc(C(=O)O)cc1)C(=O)O; Phe(2-CF3) = N[C@@H](Cc1ccccc1C(F)(F)F)C(=O)O; Bip = N[C@@H](Cc1ccc(-c2ccccc2)cc1)C(=O)O; NH(CH2)14COOH = O=C(O)CCCCCCCCCCCCCCN*; Phe(3-Me) = Cc1cccc(C[C@H](N)C(=O)O)c1; γGlu = O=C(O)[C@H](CCC(=O)[*:2])N[*:1]; NH(CH2)12COOH = O=C(O)CCCCCCCCCCCCN*; Phe(2-F) = N[C@@H](Cc1ccccc1F)C(=O)O; Val(3-OH) = CC(C)(O)[C@H](N)C(=O)O; Cha = N[C@@H](CC1CCCCC1)C(=O)O; Carboxymethyl = O=C(O)C*; Nle = CCCC[C@H](N)C(=O)O; Orn = NCCC[C@H](N)C(=O)O; Aun = NCCCCCCCCCCC(=O)O; Dab = NCC[C@H](N)C(=O)O; Nva = CCC[C@H](N)C(=O)O; Dap = NC[C@H](N)C(=O)O; AEEA = NCCOCCOCC(=O)O",
  "data": [
    {"target": "T1, PD-1/PD-L1 interaction (PE-labeled human PD-L1-Ig binding to Jurkat cell line over-expressing human PD-1) (Homo sapiens, UniProt Q15116)", "T1 construct": "expressed in transfected cells; host or cells: Jurkat", "T1 sequence (Q15116 25-288)": "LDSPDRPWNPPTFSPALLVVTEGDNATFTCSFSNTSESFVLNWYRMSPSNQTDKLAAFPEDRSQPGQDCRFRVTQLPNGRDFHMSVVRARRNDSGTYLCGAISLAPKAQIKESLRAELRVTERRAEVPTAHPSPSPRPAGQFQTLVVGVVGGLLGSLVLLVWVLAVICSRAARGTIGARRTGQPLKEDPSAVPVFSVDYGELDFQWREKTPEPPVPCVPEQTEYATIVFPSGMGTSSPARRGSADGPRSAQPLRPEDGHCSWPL", "experiment": "Jurkat-PD-1 Cell Binding High-Content Screening Assay (CBA)", "assay_type": "cell-based", "details": "Jurkat cell line over-expressing human PD-1; PE-labeled PD-L1-Ig 20 nM final; read-out: Jurkat hPD1-PDL1 IC50", "in_short": "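Binding of fluorescent PD-L1-Ig (20 nM final) to Jurkat-PD-1 cells was measured by automated imaging after 1 h, following a 2 h compound pre-treatment at 37° C.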", "units": {"IC50": "µM"}, "values": [
      {"smiles": "Cc1cccc(C[C@@H]2NC(=O)[C@H](CC(=O)O)NC(=O)[C@H](Cc3ccc(OCC(=O)O)cc3)NC(=O)[C@H](CCN)NC(=O)CSC[C@@H](C(=O)N[C@@H](CCN)C(=O)NCCOCCOCC(=O)NCCOCCOCC(=O)N[C@@H](CC(=O)NCCCCCCCCCCCCCCC(=O)O)C(=O)O)NC(=O)[C@H](Cc3c[nH]cn3)NC(=O)[C@H](C(C)(C)O)NC(=O)[C@H](CC3CCCCC3)NC(=O)[C@H](CCN)NC(=O)[C@@H](CC(C)C)NC(=O)[C@H](CCCN)NC(=O)[C@H](Cc3ccc(C(=O)O)cc3)NC(=O)[C@H](Cc3ccc(-c4ccccc4)cc3)NC(=O)[C@H](Cc3ccc(C(=O)O)cc3)NC2=O)c1", "note": "[Compound 1252] ({CH2CO}-[Dab]Y(Carboxymethyl)D[Phe(3-Me)][Phe(4-COOH)][Bip][Phe(4-COOH)][Orn][dL][Dab][Cha][Val(3-OH)]HC[Dab][AEEA][AEEA]D(NH(CH2)14COOH)-OH; thioether N-14)", "IC50": 0.0415},
      {"smiles": "Cc1cccc(C[C@@H]2NC(=O)[C@H](CC(=O)O)NC(=O)[C@H](Cc3ccc(OCC(=O)O)cc3)NC(=O)[C@H](CCN)NC(=O)CSC[C@@H](C(=O)N[C@@H](CCN)C(=O)NCCOCCOCC(=O)NCCOCCOCC(=O)N[C@@H](CCC(=O)NCCCCCCCCCCCCCCC(=O)O)C(=O)O)NC(=O)[C@H](Cc3cnc[nH]3)NC(=O)[C@H](C(C)(C)O)NC(=O)[C@H](CC3CCCCC3)NC(=O)[C@H](CCN)NC(=O)[C@@H](CC(C)C)NC(=O)[C@H](CCCN)NC(=O)[C@H](Cc3ccc(C(=O)O)cc3)NC(=O)[C@H](Cc3ccc(-c4ccccc4)cc3)NC(=O)[C@H](Cc3ccc(C(=O)O)cc3)NC2=O)c1", "note": "[Compound 1253] ({CH2CO}-[Dab]Y(Carboxymethyl)D[Phe(3-Me)][Phe(4-COOH)][Bip][Phe(4-COOH)][Orn][dL][Dab][Cha][Val(3-OH)]HC[Dab][AEEA][AEEA]E(NH(CH2)14COOH)-OH; thioether N-14)", "IC50": 0.0311},
      {"smiles": "Cc1cccc(C[C@@H]2NC(=O)[C@H](CC(=O)O)NC(=O)[C@H](Cc3ccc(OCC(=O)O)cc3)NC(=O)[C@H](CCN)NC(=O)CSC[C@@H](C(=O)N[C@@H](CCN)C(=O)NCCOCCOCC(=O)NCCOCCOCC(=O)N[C@@H](CC(=O)NCCCCCCCCCCCCC(=O)O)C(=O)O)NC(=O)[C@H](Cc3cnc[nH]3)NC(=O)[C@H](C(C)(C)O)NC(=O)[C@H](CC3CCCCC3)NC(=O)[C@H](CCN)NC(=O)[C@@H](CC(C)C)NC(=O)[C@H](CCCN)NC(=O)[C@H](Cc3ccc(C(=O)O)cc3)NC(=O)[C@H](Cc3ccc(-c4ccccc4)cc3)NC(=O)[C@H](Cc3ccc(C(=O)O)cc3)NC2=O)c1", "note": "[Compound 1255] ({CH2CO}-[Dab]Y(Carboxymethyl)D[Phe(3-Me)][Phe(4-COOH)][Bip][Phe(4-COOH)][Orn][dL][Dab][Cha][Val(3-OH)]HC[Dab][AEEA][AEEA]D(NH(CH2)12COOH)-OH; thioether N-14)", "IC50": 0.0102},
      {"smiles": "Cc1cccc(C[C@@H]2NC(=O)[C@H](CC(=O)O)NC(=O)[C@H](Cc3ccc(OCC(=O)O)cc3)NC(=O)[C@H](CCN)NC(=O)CSC[C@@H](C(=O)N[C@@H](CCN)C(=O)NCCOCCOCC(=O)NCCOCCOCC(=O)N[C@@H](CCC(=O)NCC(=O)NCCCCCCCCCCCCC(=O)O)C(=O)O)NC(=O)[C@H](Cc3cnc[nH]3)NC(=O)[C@H](C(C)(C)O)NC(=O)[C@H](CC3CCCCC3)NC(=O)[C@H](CCN)NC(=O)[C@@H](CC(C)C)NC(=O)[C@H](CCCN)NC(=O)[C@H](Cc3ccc(C(=O)O)cc3)NC(=O)[C@H](Cc3ccc(-c4ccccc4)cc3)NC(=O)[C@H](Cc3ccc(C(=O)O)cc3)NC2=O)c1", "note": "[Compound 1256] ({CH2CO}-[Dab]Y(Carboxymethyl)D[Phe(3-Me)][Phe(4-COOH)][Bip][Phe(4-COOH)][Orn][dL][Dab][Cha][Val(3-OH)]HC[Dab][AEEA][AEEA][γGlu]G-{NH(CH2)12COOH}; thioether N-14)", "IC50": 0.0099},
      {"smiles": "Cc1cccc(C[C@@H]2NC(=O)[C@H](CC(=O)O)NC(=O)[C@H](Cc3ccc(OCC(=O)O)cc3)NC(=O)[C@H](CN)NC(=O)CSC[C@@H](C(=O)N[C@@H](CCN)C(=O)NCCOCCOCC(=O)NCCCCCCCCCCC(=O)O)NC(=O)[C@H](CCC(=O)O)NC(=O)[C@H](C(C)C)NC(=O)[C@H](CC(C)C)NC(=O)[C@H](CCN)NC(=O)[C@@H](CC(C)C)NC(=O)[C@H](CCCN)NC(=O)[C@H](Cc3ccc(OCC(=O)O)cc3)NC(=O)[C@H](Cc3ccc(-c4ccccc4)cc3)NC(=O)[C@H](Cc3ccc(OCC(=O)O)cc3)NC2=O)c1", "note": "[Compound 1257] ({CH2CO}-[Dap]Y(Carboxymethyl)D[Phe(3-Me)]Y(Carboxymethyl)[Bip]Y(Carboxymethyl)[Orn][dL][Dab]LVEC[Dab][AEEA][Aun]-OH; thioether N-14)", "IC50": 0.02},
      {"smiles": "CCCC[C@@H]1NC(=O)[C@H](CCN)NC(=O)[C@@H](CC(C)C)NC(=O)[C@H](CCCN)NC(=O)[C@H](Cc2ccc(OCC(=O)O)cc2)NC(=O)[C@H](Cc2ccc(-c3ccccc3)cc2)NC(=O)[C@H](Cc2ccc(OCC(=O)O)cc2)NC(=O)[C@H](Cc2cccc(C)c2)NC(=O)[C@H](CC(=O)O)NC(=O)[C@H](Cc2ccc(OCC(=O)O)cc2)NC(=O)[C@H](CN)NC(=O)CSC[C@@H](C(=O)N[C@@H](CCN)C(=O)NCCOCCOCC(=O)NCCCCCCCCCCC(=O)O)NC(=O)[C@H](CCC(=O)O)NC(=O)[C@H](C(C)C)NC1=O", "note": "[Compound 1258] ({CH2CO}-[Dap]Y(Carboxymethyl)D[Phe(3-Me)]Y(Carboxymethyl)[Bip]Y(Carboxymethyl)[Orn][dL][Dab][Nle]VEC[Dab][AEEA][Aun]-OH; thioether N-14)", "IC50": 0.0446},
      {"smiles": "CCC[C@@H]1NC(=O)[C@H](CCN)NC(=O)[C@@H](CC(C)C)NC(=O)[C@H](CCCN)NC(=O)[C@H](Cc2ccc(OCC(=O)O)cc2)NC(=O)[C@H](Cc2ccc(-c3ccccc3)cc2)NC(=O)[C@H](Cc2ccc(OCC(=O)O)cc2)NC(=O)[C@H](Cc2cccc(C)c2)NC(=O)[C@H](CC(=O)O)NC(=O)[C@H](Cc2ccc(OCC(=O)O)cc2)NC(=O)[C@H](CN)NC(=O)CSC[C@@H](C(=O)N[C@@H](CCN)C(=O)NCCOCCOCC(=O)NCCCCCCCCCCC(=O)O)NC(=O)[C@H](CCC(=O)O)NC(=O)[C@H](C(C)C)NC1=O", "note": "[Compound 1259] ({CH2CO}-[Dap]Y(Carboxymethyl)D[Phe(3-Me)]Y(Carboxymethyl)[Bip]Y(Carboxymethyl)[Orn][dL][Dab][Nva]VEC[Dab][AEEA][Aun]-OH; thioether N-14)", "IC50": 0.153},
      {"smiles": "Cc1cccc(C[C@@H]2NC(=O)[C@H](CC(=O)O)NC(=O)[C@H](Cc3ccc(OCC(=O)O)cc3)NC(=O)[C@H](CN)NC(=O)CSC[C@@H](C(=O)N[C@@H](CCN)C(=O)NCCOCCOCC(=O)NCCCCCCCCCCC(=O)O)NC(=O)[C@H](CCC(=O)O)NC(=O)[C@H](C(C)C)NC(=O)[C@H](Cc3ccccc3)NC(=O)[C@H](CCN)NC(=O)[C@@H](CC(C)C)NC(=O)[C@H](CCCN)NC(=O)[C@H](Cc3ccc(OCC(=O)O)cc3)NC(=O)[C@H](Cc3ccc(-c4ccccc4)cc3)NC(=O)[C@H](Cc3ccc(OCC(=O)O)cc3)NC2=O)c1", "note": "[Compound 1261] ({CH2CO}-[Dap]Y(Carboxymethyl)D[Phe(3-Me)]Y(Carboxymethyl)[Bip]Y(Carboxymethyl)[Orn][dL][Dab]FVEC[Dab][AEEA][Aun]-OH; thioether N-14)", "IC50": 0.0093},
      {"smiles": "Cc1cccc(C[C@@H]2NC(=O)[C@H](CC(=O)O)NC(=O)[C@H](Cc3ccc(OCC(=O)O)cc3)NC(=O)[C@H](CC3CCCCC3)NC(=O)CSC[C@@H](C(=O)N[C@@H](CCN)C(=O)NCCOCCOCC(=O)NCCCCCCCCCCC(=O)O)NC(=O)[C@H](CO)NC(=O)[C@H](C(C)(C)O)NC(=O)[C@H](CC3CCCCC3)NC(=O)[C@H](CCN)NC(=O)[C@@H](CC(C)C)NC(=O)[C@H](CCCN)NC(=O)[C@H](Cc3ccc(OCC(=O)O)cc3)NC(=O)[C@H](Cc3ccc(-c4ccccc4)cc3)NC(=O)[C@H](Cc3ccc(OCC(=O)O)cc3)NC2=O)c1", "note": "[Compound 1263] ({CH2CO}-[Cha]Y(Carboxymethyl)D[Phe(3-Me)]Y(Carboxymethyl)[Bip]Y(Carboxymethyl)[Orn][dL][Dab][Cha][Val(3-OH)]SC[Dab][AEEA][Aun]-OH; thioether N-14)", "IC50": 0.0056},
      {"smiles": "Cc1cccc(C[C@@H]2NC(=O)[C@H](CC(=O)O)NC(=O)[C@H](Cc3ccc(OCC(=O)O)cc3)NC(=O)[C@H](CN)NC(=O)CSC[C@@H](C(=O)N[C@@H](CCN)C(=O)NCCOCCOCC(=O)NCCCCCCCCCCC(=O)O)NC(=O)[C@H](CCC(=O)O)NC(=O)[C@H](C(C)C)NC(=O)[C@H](Cc3ccccc3F)NC(=O)[C@H](CCN)NC(=O)[C@@H](CC(C)C)NC(=O)[C@H](CCCN)NC(=O)[C@H](Cc3ccc(OCC(=O)O)cc3)NC(=O)[C@H](Cc3ccc(-c4ccccc4)cc3)NC(=O)[C@H](Cc3ccc(C(=O)O)cc3)NC2=O)c1", "note": "[Compound 1266] ({CH2CO}-[Dap]Y(Carboxymethyl)D[Phe(3-Me)][Phe(4-COOH)][Bip]Y(Carboxymethyl)[Orn][dL][Dab][Phe(2-F)]VEC[Dab][AEEA][Aun]-OH; thioether N-14)", "IC50": 0.014},
      {"smiles": "Cc1cccc(C[C@@H]2NC(=O)[C@H](CC(=O)O)NC(=O)[C@H](Cc3ccc(OCC(=O)O)cc3)NC(=O)[C@H](CN)NC(=O)CSC[C@@H](C(=O)N[C@@H](CCN)C(=O)NCCOCCOCC(=O)NCCCCCCCCCCC(=O)O)NC(=O)[C@H](CCC(=O)O)NC(=O)[C@H](C(C)C)NC(=O)[C@H](Cc3ccccc3C(F)(F)F)NC(=O)[C@H](CCN)NC(=O)[C@@H](CC(C)C)NC(=O)[C@H](CCCN)NC(=O)[C@H](Cc3ccc(OCC(=O)O)cc3)NC(=O)[C@H](Cc3ccc(-c4ccccc4)cc3)NC(=O)[C@H](Cc3ccc(C(=O)O)cc3)NC2=O)c1", "note": "[Compound 1267] ({CH2CO}-[Dap]Y(Carboxymethyl)D[Phe(3-Me)][Phe(4-COOH)][Bip]Y(Carboxymethyl)[Orn][dL][Dab][Phe(2-CF3)]VEC[Dab][AEEA][Aun]-OH; thioether N-14)", "IC50": 0.0152}
    ]}
  ]
}
